In brackets after ≈: the same amount, converted by molar mass.
Tests used:
KB-cells = test: KB-cell growth inhibition tests; assay type: cell-based; conditions: Homo sapiens, 48 h, MEM-10% calf serum, 5% CO2, 37° C., sample added second day, surviving cells counted fourth day, substantially 50% growth inhibition vs sample-free control, read-out: KB cell growth inhibition ED50
Description: KB-cells were placed in an Eagles minimal essential medium (MEM)-10% calf serum medium and cultered in a 5 % carbon dioxide atmosphere at 37° C. in an incubator. The cells thus treated were used in the tests. On the first day, the KB cells were diluted to a concentration of 2×10^4 /ml 3 ml of the resulting suspension was placed in watch glasses having a diameter of 60 mm. On the second day, 100, 30, 10, 3 and 1 μg/ml of each sample to be tested was added thereto and the culture was continued under the same conditions as above. On the fourth day, the surviving cells were taken out of the watch glass by meand of trypsin and the number of the cells was counted. The concentration of the sample required for obtaining substantially 50 % growth inhibition based on the sample-free control (ED50) was determined. The cancer cell growth inhibition effect of the sample was shown by ED50.

P388 cancer cells = test: Tests of life-prolongation effects on cancered mice (P388, i.p.); assay type: in vivo; conditions: Mus musculus, P388, ip, i.p. on first and fifth day, P388 in CDF mice, read-out: Life-prolongation effects T/C %
Description: 10^6 P388 cancer cells were grafted into groups of CDF mice. Each group consisted of six mice. On the first day and the fifth day, a sample to be tested was administered to the mice intraperitoneally. The life-prolongation effects were shown in terms of the ratio of the number of surviving days of the mice in the treated group to that in the control group (T/C %).

Acute toxicity in mice = conditions: mouse, in vivo, male mice
Text: The compounds of the present invention have only a low acute toxicity. For example, the acute toxicities of typical compounds, i.e., α,α-bis(2-hydroxy-6-isopropyl-tropon-3-yl)toluene (IIIa) and α,α-bis(2-hydroxy-6-isopropyl-tropon-3-yl)-4-methoxytoluene (IIIb) have LD50 as shown in the following table: […]

Structure (SMILES): CC(C)c1ccc(C(c2ccccc2)c2ccc(C(C)C)cc(=O)c2O)c(O)c(=O)c1 [IIIa, α,α-bis(2-hydroxy-6-isopropyl-tropon-3-yl)toluene]
- IC50 (KB-cells): < 0.3 µg/mL
- response vs control in vivo at 1.25 mg/kg (P388 cancer cells; 1.25 mg/kg): 132%
- response vs control in vivo at 5 mg/kg (P388 cancer cells): 188%
- LD50 (Acute toxicity in mice; ip): 5.5 mg/kg
- LD50 (Acute toxicity in mice; iv): 5.8 mg/kg
- LD50 (Acute toxicity in mice; po): > 5000 mg/kg

Structure (SMILES): COc1ccc(C(c2ccc(C(C)C)cc(=O)c2O)c2ccc(C(C)C)cc(=O)c2O)cc1 [IIIb, α,α-bis(2-hydroxy-6-isopropyl-tropon-3-yl)-4-methoxytoluene]
- IC50 (KB-cells): < 0.3 µg/mL
- response vs control in vivo at 0.62 mg/kg (P388 cancer cells; 0.62 mg/kg): 127%
- response vs control in vivo at 5 mg/kg (P388 cancer cells): 173%
- LD50 (Acute toxicity in mice; ip): 11.2 mg/kg
- LD50 (Acute toxicity in mice; iv): 9.1 mg/kg
- LD50 (Acute toxicity in mice; po): > 5000 mg/kg

Structure (SMILES): Cc1ccc(C(c2ccc(C(C)C)cc(=O)c2O)c2ccc(C(C)C)cc(=O)c2O)cc1 [IIIc, α,α-bis(2-hydroxy-6-isopropyl-tropon-3-yl)-4-methyltoluene]
- IC50 (KB-cells): 1.45 µg/mL (≈ 3.37 µM)
- response vs control in vivo at 2.5 mg/kg (P388 cancer cells): 125%
- response vs control in vivo at 10 mg/kg (P388 cancer cells): 163%

Structure (SMILES): CC(C)c1ccc(C(c2ccc(Cl)cc2)c2ccc(C(C)C)cc(=O)c2O)c(O)c(=O)c1 [IIId, α,α-bis(2-hydroxy-6-isopropyl-tropon-3yl)-4-chlorotoluene]
- IC50 (KB-cells): 2 µg/mL (≈ 4.43 µM)
- response vs control in vivo at 2.5 mg/kg (P388 cancer cells): 124%
- response vs control in vivo at 10 mg/kg (P388 cancer cells): 144%

Structure (SMILES): CC(C)c1ccc(C(c2ccc(N(C)C)cc2)c2ccc(C(C)C)cc(=O)c2O)c(O)c(=O)c1 [IIIe, α,α-bis(2-hydroxy-6-isopropyl-tropon-3-yl)-4-(N,N-dimethylamino)toluene]
- IC50 (KB-cells): 0.69 µg/mL (≈ 1.5 µM)
- response vs control in vivo at 2.5 mg/kg (P388 cancer cells): 141%

Structure (SMILES): CC(C)c1ccc(C2OCCc3ccccc32)c(O)c(=O)c1 (stereo not drawn) [IIa, 3-(1-isochromanyl)-6-isopropyltropolone]
- IC50 (KB-cells): < 0.3 µg/mL
- response vs control in vivo at 100 mg/kg (P388 cancer cells): 126%

Structure (SMILES): O=c1ccccc(C2OCCc3ccccc32)c1O (stereo not drawn) [IIb, 3-(1-isochromanyl)tropolone]
- response vs control in vivo at 100 mg/kg (P388 cancer cells): 96%

Structure (SMILES): COc1ccc(C(c2cc(C(C)C)ccc(=O)c2O)c2cc(C(C)C)ccc(=O)c2O)cc1 [IVa, α,α-bis(2-hydroxy-5-isopropyltropon-3-yl)-4-methoxytoluene]
- IC50 (KB-cells): 0.3 µg/mL (≈ 0.672 µM)
- response vs control in vivo at 2.5 mg/kg (P388 cancer cells): 137%
- response vs control in vivo at 10 mg/kg (P388 cancer cells): 147%

Structure (SMILES): CCOC(c1ccccc1)c1ccc(C(C)C)cc(=O)c1O (stereo not drawn) [Ia]
- IC50 (KB-cells): < 0.3 µg/mL
- response vs control in vivo at 200 mg/kg (P388 cancer cells): 109%

Structure (SMILES): CCOC(c1ccc(C)cc1)c1ccc(C(C)C)cc(=O)c1O (stereo not drawn) [Ib, 3-(α-ethoxy-4-methylbenzyl)-6-isopropyltropolone]
- IC50 (KB-cells): 6.2 µg/mL (≈ 19.8 µM)
- response vs control in vivo at 400 mg/kg (P388 cancer cells): 125%

Structure (SMILES): CCOC(c1ccc(OC)cc1)c1ccc(C(C)C)cc(=O)c1O (stereo not drawn) [Ic, 3-(α-ethoxy-4-methoxybenzyl)-6-isopropyltropolone]
- IC50 (KB-cells): 0.51 µg/mL (≈ 1.55 µM)
- response vs control in vivo at 100 mg/kg (P388 cancer cells): 140%

Structure (SMILES): CCOC(c1ccc(N(C)C)cc1)c1ccc(C(C)C)cc(=O)c1O (stereo not drawn) [Id, 3-[α-ethoxy-4-(N,N-dimethylamino)benzyl]-6-isopropyltropolone]
- IC50 (KB-cells): 0.59 µg/mL (≈ 1.73 µM)
- response vs control in vivo at 100 mg/kg (P388 cancer cells): 136%

Structure (SMILES): CC(C)c1ccc(C(c2ccccc2)c2ccccc2)c(O)c(=O)c1 [Ie, 3-benzhydryl-6-isopropyltropolone]
- IC50 (KB-cells): 1.39 µg/mL (≈ 4.21 µM)
- response vs control in vivo at 200 mg/kg (P388 cancer cells): 123%
- response vs control in vivo at 400 mg/kg (P388 cancer cells): 132%

Structure (SMILES): CC(C)c1ccc(Cc2ccccc2)c(O)c(=O)c1 [If, 3-benzyl-6-isopropyltropolone]
- IC50 (KB-cells): 0.56 µg/mL (≈ 2.2 µM)
- response vs control in vivo at 200 mg/kg (P388 cancer cells): 97%
